# Source: article PMC10762078, “Role of UPF1-LIN28A interaction during early differentiation of pluripotent stem cells” (Nature Communications, 2024)
# What was measured:
# [1] = test system: lineage markers in CHA15 cells; assay: RNA-seq of CHA15 cells during ectodermal, mesodermal and endodermal differentiation with CPP-peptides (Fig. 7a); format: cell-based, Homo sapiens; conditions: CHA15, 5 days
# Protocol: (§1) For CPP-conjugated peptide delivery, HeLa, 293T, and PA-1 cells were incubated with CPP-conjugated peptides or CPP-FITC at 2 μM in DMEM with 10% FBS for 12 h a day before cell harvest. hPSCs were treated with CPP-conjugated peptides at 10 μM in mTeSR Plus Medium, and the peptide-containing medium was changed every day over 10 days. The ROCK inhibitor (Tocris Bioscience, Y-27632) treated-hPSCs were dissociated into single cells using Accutase (Merck, SCR005) and differentiated into ectoderm, mesoderm, and endoderm using the STEMdiff Trilineage Differentiation Kit ([…] Technologies, 05230) following the manufacturer’s protocol. Differentiated cells treated with CPP-conjugated peptides were analysed at 0, 3, and 5 days for ectoderm and endoderm, and at 0, 3, and 4 days for mesoderm.
# Total RNA concentration was calculated using Quant-IT RiboGreen (Invitrogen, R11490). […] The libraries were quantified using the KAPA Library Quantification Kits for Illumina Sequencing platforms according to the qPCR Quantification Protocol Guide (KAPA BIOSYSTEMS, KR0405) and qualified using the TapeStation D1000 ScreenTape (Agilent). […]
# We pre-processed the raw reads from the sequencer to remove low-quality reads and adapter sequences before analysis and aligned the processed reads to Homo sapiens (GRCh37) using HISAT v2.1.0[52]. […]
# [2] = test system: nonsense-mediated mRNA decay (NMD); assay: NMD reporter mRNA by RT-qPCR in HeLa cells without LIN28A, with CPP-peptides (Supplementary Fig. 5c); format: cell-based; conditions: no LIN28A, 2 μM, n = 5
# Protocol: as §1, with “mesoderm. […]” for “mesoderm.”
# (§2) cDNA was synthesised using RevertAid Reverse Transcriptase (Thermo Fisher Scientific, EP0441) with synthesised random hexamer (Macrogen) for total RNA or stem-loop primers for miRNA. For RT-qPCR reactions, the SensiFAST SYBR No-ROX kit (Meridian Bioscience) was used according to the manufacturer’s protocol. All data analysis and visualisation were conducted using R 3.6.1 [www.r-project.org] or GraphPad Prism 10. RT primers for miRNA and RT-qPCR primer sequences are provided in Supplementary Data 6. […]
# [3] = test system: nonsense-mediated mRNA decay (NMD); assay: NMD reporter mRNA by RT-qPCR in UPF1-depleted HeLa cells with FLAG-LIN28A and CPP-peptides (Supplementary Fig. 5d); format: cell-based; conditions: siUPF1 + FLAG-LIN28A, 2 μM, n = 3
# Protocol: as §1, with “mesoderm. […]” for “mesoderm.”
# as §2
# [4] = test system: nonsense-mediated mRNA decay (NMD); assay: NMD reporter (Gl, GPx1) mRNA by RT-qPCR in LIN28A-expressing HeLa cells with CPP-peptides (Fig. 5c); format: cell-based; conditions: FLAG control (no LIN28A) HeLa, CPP-peptide
Substance,ectodermal marker levels [1],effect on NMD in absence of LIN28A [2],effect on NMD in absence of UPF1 [3],"relative GPx1 mRNA level ([4]; normalised to MUP, replicate set2)","relative Gl mRNA level ([4]; normalised to MUP, replicate set3)","GPx1 mRNA, mean ([4]; mean in t-test output, n = 3)","Gl mRNA, mean ([4]; mean in t-test output, n = 3)"
"KKKWCRKKKSSADEKRYRALKRTAERELLMNA [CPP-P8, CPP conjugated to P8]","overall reduced the levels of its marker, in contrast to mesodermal and endodermal differentiation",did not affect NMD in the absence of LIN28A,did not affect NMD in the absence of LIN28A or UPF1,,,,
"N-QKLDQKELQLEPM-C [P1, reference compound]",,,,1.035,1.014,0.2656,0.4223
